Experimental data as given in ChEMBL document CHEMBL1158408, “Large-scale application of high-throughput molecular mechanics with Poisson-Boltzmann surface area for routine physics-based scoring of protein-ligand complexes” (J Med Chem, 2009).

Target: T1, Tyrosine-protein phosphatase non-receptor type 1 (Homo sapiens, UniProt P18031)
T1 sequence (P18031 whole entry): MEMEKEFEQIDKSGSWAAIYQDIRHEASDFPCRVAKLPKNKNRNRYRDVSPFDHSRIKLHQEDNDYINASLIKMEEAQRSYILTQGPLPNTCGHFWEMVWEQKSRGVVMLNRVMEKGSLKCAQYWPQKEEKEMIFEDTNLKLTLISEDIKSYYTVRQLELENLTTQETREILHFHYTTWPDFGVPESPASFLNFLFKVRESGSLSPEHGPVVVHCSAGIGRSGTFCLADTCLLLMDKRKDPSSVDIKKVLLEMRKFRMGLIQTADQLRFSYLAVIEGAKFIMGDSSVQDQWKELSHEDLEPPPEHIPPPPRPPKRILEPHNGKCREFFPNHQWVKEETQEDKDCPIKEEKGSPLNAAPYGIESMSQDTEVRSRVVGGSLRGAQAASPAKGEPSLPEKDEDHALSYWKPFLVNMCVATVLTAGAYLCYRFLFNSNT

SMILES | Ki [µM]
CCc1cc(CC(NC(C)=O)C(=O)NCCCCOc2cccc(O)c2C(=O)O)ccc1N(C(=O)C(=O)O)c1ccccc1C(=O)O (stereo not drawn) | 0.0316
O=C(O)C(=O)Nc1sc2c(c1C(=O)O)CCN(Cc1ccccc1)C2 | 63.1
CCc1cc(CC(NC(C)=O)C(=O)NCCCCC(=O)N[C@@H](CCS(C)(=O)=O)C(=O)O)ccc1N(C(=O)C(=O)O)c1ccccc1C(=O)O (stereo partly drawn) | 0.398
O=C(O)C(=O)N(c1ccccc1C(=O)O)c1ccccc1N1CCCCC1 | 15.8
CCc1cc(CC(NC(C)=O)C(=O)NCCCCC(=O)NC(Cc2nccs2)C(=O)O)ccc1N(C(=O)C(=O)O)c1ccccc1C(=O)O (stereo not drawn) | 0.631
CCc1cc(CC(NC(C)=O)C(=O)NCCCCC(=O)NC(Cc2ccc(Cl)cc2)C(=O)O)ccc1N(C(=O)C(=O)O)c1ccccc1C(=O)O (stereo not drawn) | 0.631
CCCCCNC(=O)[C@@H](Cc1ccc(N(C(=O)C(=O)O)c2ccccc2C(=O)O)c(/C=C/C(N)=O)c1)NC(=O)NC(C)C | 0.316
CCc1cc(CC(NC(C)=O)C(=O)NCCCCC(=O)N[C@@H](Cc2ccc(O)cc2)C(=O)O)ccc1N(C(=O)C(=O)O)c1ccccc1C(=O)O (stereo partly drawn) | 0.158
Nc1c(C(=O)O)noc1-c1ccccc1 | 316
COC(=O)c1c(O)cccc1OCCCCNC(=O)C(Cc1ccc(N(CC(Cc2ccccc2)C(=O)O)C(=O)C(=O)O)cc1)NC(=O)OC(C)(C)C (stereo not drawn) | 5.01
COC(=O)c1c(O)cccc1OCCCCNC(=O)[C@@H](Cc1ccc(OCC(=O)O)c(C(=O)O)c1)NC(=O)OC(C)(C)C | 2
CCc1cc(CC(NC(C)=O)C(=O)NCCCCC(=O)NC(Cc2cccs2)C(=O)O)ccc1N(C(=O)C(=O)O)c1ccccc1C(=O)O (stereo not drawn) | 0.398
O=C(O)c1cc(-c2cccc(-c3cccc(-c4cc(C(=O)O)no4)c3)c2)on1 | 79.4
O=C(O)C(=O)N(c1cc(O)ccc1C(=O)O)c1cccc2ccc(O)cc12 | 2
CCCCCNC(=O)C(Cc1ccc(N2CCCCC2)c(N(C(=O)C(=O)O)c2ccccc2C(=O)O)c1)NC(C)=O (stereo not drawn) | 20
O=C(O)c1ccc(O)cc1-n1c(=O)c(=O)oc2ccccc21 | 1.26
COCCC(CN(C(=O)C(=O)O)c1ccc(CC(NC(=O)OC(C)(C)C)C(=O)NCCCCOc2cccc(O)c2C(=O)OC)cc1)C(=O)O (stereo not drawn) | 7.94

SMILES | Ki [µM]
CCc1cc(CC(NC(C)=O)C(=O)NCCCCC(=O)NC(C(=O)O)c2c[nH]c3ccccc23)ccc1N(C(=O)C(=O)O)c1ccccc1C(=O)O (stereo not drawn) | 0.251
C=CCOC(=O)N[C@@H](Cc1ccc(N(C(=O)C(=O)O)c2ccccc2C(=O)O)cc1)C(=O)NCCOCCOc1cccc(O)c1C(=O)OC | 0.398
CCc1cc(CC(NC(C)=O)C(=O)NCCCCC(=O)N[C@@H](Cc2ccccc2)C(=O)O)ccc1N(C(=O)C(=O)O)c1ccccc1C(=O)O (stereo partly drawn) | 0.126
COC(=O)c1c(O)cccc1OCCCCCN1CCc2ccc(N(C(=O)C(=O)O)c3ccccc3C(=O)O)cc2C1 | 10
CCc1cc(CC(NC(C)=O)C(=O)NCCCCC(=O)N2CCC[C@@H]2C(=O)O)ccc1N(C(=O)C(=O)O)c1ccccc1C(=O)O (stereo partly drawn) | 2
CC(=O)NC(Cc1ccc(N(C(=O)C(=O)O)c2ccccc2C(=O)O)c2ccccc12)C(=O)NCCO (stereo not drawn) | 12.6
CC(=O)NC(Cc1ccc(N(C(=O)C(=O)O)c2ccccc2C(=O)O)c2ccccc12)C(=O)NCCCN1CCCC1=O (stereo not drawn) | 7.94
CC(=O)N1CCC(C(=O)Nc2cccc(-c3cc(C(=O)O)no3)c2)CC1 | 79.4
COC(=O)c1c(O)cccc1OCCCC(=O)Nc1cccc(-c2cc(C(=O)O)no2)c1 | 251
COC(=O)c1c(O)cccc1OC(CO)CCc1cc(-c2cc(C(=O)O)no2)ccc1F (stereo not drawn) | 126
CNC(=O)c1c(O)cccc1OC/C=C/c1cccc(-c2cc(C(=O)O)no2)c1 | 6.31
O=C(O)C(=O)N(c1cc([N+](=O)[O-])ccc1C(=O)O)c1cccc2ccc(O)cc12 | 7.94
COc1ccc2c(c1)-c1onc(C(=O)O)c1CC2 | 631
Cn1ccc2c(N(C(=O)C(=O)O)c3ccccc3C(=O)O)cccc21 | 39.8
CCc1cc(CC(NC(C)=O)C(=O)NCCCCC(=O)N[C@@H](CCSC)C(=O)O)ccc1N(C(=O)C(=O)O)c1cc(Cl)ccc1C(=O)O (stereo partly drawn) | 0.0631
O=C(O)C(=O)N(c1ccccc1C(=O)O)c1cccc2ccccc12 | 158
